Columns and labels:
Format in all cases: in vivo
[1] = test system: barnyardgrass (Echinochloa crus-galli); assay: Test A preemergence soil spray, visual injury rating 0-100; settings: 10 days, 0 = no effect, 100 = complete control
Procedure, shortened: (§1)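 Visual injury, scored 0-100 (100 = complete control) against untreated plants, 10 days after greenhouse treatment. Test chemicals in surfactant-containing non-phytotoxic solvent were applied in loam soil and sand, as a preemergence soil spray on seeds or postemergence to plants at the one- to two-leaf stage.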

[2] = test system: blackgrass (Alopecurus myosuroides); assay: as above; settings: 10 days, 0 = no effect, 100 = complete control
Procedure, shortened: as §1

[3] = test system: corn (Zea mays); assay: as above; settings: 10 days, 0 = no effect, 100 = complete control
Procedure, shortened: as §1

[4] = test system: green foxtail (Setaria viridis); assay: as above; settings: 10 days, 0 = no effect, 100 = complete control
Procedure, shortened: as §1

[5] = test system: kochia (Bassia scoparia); assay: as above; settings: 10 days, 0 = no effect, 100 = complete control
Procedure, shortened: as §1

[6] = test system: oat, wild (wild oat, Avena fatua); assay: as above; settings: 10 days, 0 = no effect, 100 = complete control
Procedure, shortened: as §1

[7] = test system: palmer (palmer amaranth, palmer pigweed, Amaranthus palmeri); assay: as above; settings: 10 days, 0 = no effect, 100 = complete control
Procedure, shortened: as §1

[8] = test system: ragweed (common ragweed, Ambrosia artemisiifolia); assay: as above; settings: 10 days, 0 = no effect, 100 = complete control
Procedure, shortened: as §1

[9] = test system: ryegrass, Italian (italian ryegrass, Lolium multiflorum); assay: as above; settings: 10 days, 0 = no effect, 100 = complete control
Procedure, shortened: as §1

[10] = test system: soybean (Glycine max); assay: as above; settings: 10 days, 0 = no effect, 100 = complete control
Procedure, shortened: as §1

[11] = test system: wheat (Triticum aestivum); assay: as above; settings: 10 days, 0 = no effect, 100 = complete control
Procedure, shortened: as §1

[12] = test system: barnyardgrass (Echinochloa crus-galli); assay: Test A postemergence application, visual injury rating 0-100; settings: 10 days
Procedure, shortened: as §1

[13] = test system: blackgrass (Alopecurus myosuroides); assay: as above; settings: 10 days
Procedure, shortened: as §1

[14] = test system: corn (Zea mays); assay: as above; settings: 10 days
Procedure, shortened: as §1

[15] = test system: galium (catchweed bedstraw, Galium aparine); assay: as above; settings: 10 days
Procedure, shortened: as §1

[16] = test system: green foxtail (Setaria viridis); assay: as above; settings: 10 days
Procedure, shortened: as §1

[17] = test system: horseweed (Erigeron canadensis); assay: as above; settings: 10 days
Procedure, shortened: as §1

[18] = test system: kochia (Bassia scoparia); assay: as above; settings: 10 days
Procedure, shortened: as §1

[19] = test system: oat, wild (wild oat, Avena fatua); assay: as above; settings: 10 days
Procedure, shortened: as §1

[20] = test system: palmer (palmer amaranth, palmer pigweed, Amaranthus palmeri); assay: as above; settings: 10 days
Procedure, shortened: as §1

[21] = test system: ragweed (common ragweed, Ambrosia artemisiifolia); assay: as above; settings: 10 days
Procedure, shortened: as §1

[22] = test system: ryegrass, Italian (italian ryegrass, Lolium multiflorum); assay: as above; settings: 10 days
Procedure, shortened: as §1

[23] = test system: soybean (Glycine max); assay: as above; settings: 10 days
Procedure, shortened: as §1

[24] = test system: wheat (Triticum aestivum); assay: as above; settings: 10 days
Procedure, shortened: as §1

[25] = test system: barnyardgrass (Echinochloa crusgalli); assay: Test B flooded paddy test, visual plant response rating 0-100; settings: 250 g ai/ha, Flood, applied to paddy water, evaluated after 13 days
Procedure, shortened: (§2)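 In this flooded assay, 2-leaf seedlings received compound through the water layer, kept at 3 cm over the soil. Plants were held 13 days in a greenhouse and then visually compared with control pots.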

[26] = test system: ducksalad (Heteranthera limosa); assay: as above; settings: 250 g ai/ha, Flood, applied to paddy water, evaluated after 13 days
Procedure, shortened: as §2

[27] = test system: rice (Oryza sativa); assay: as above; settings: 250 g ai/ha, Flood, applied to paddy water, evaluated after 13 days
Procedure, shortened: as §2

[28] = test system: sedge, umbrella (small-flower umbrella sedge, Cyperus difformis); assay: as above; settings: 250 g ai/ha, Flood, applied to paddy water, evaluated after 13 days
Procedure, shortened: as §2

[29] = 31 g ai/ha, postemergence, 0 = no effect, 100 = complete control
[30] = Postemergence, 125 g ai/ha, 0 is no effect, 100 is complete control

CNC(=O)C1CCC(NC(=O)C2(C)CN(c3cc(F)cc(F)c3)C(=O)O2)C1 (stereo not shown) [Compound 14]
20: Corn plant response rating (0 to 100 scale) [14, 30]
0: Barnyardgrass plant response rating (0-100) ([1]; 31 g ai/ha) | Barnyardgrass plant response rating (0 to 100 scale) ([1]; 125 g ai/ha) | Blackgrass plant response rating (0-100) ([2]; 31 g ai/ha) | Blackgrass plant response rating (0 to 100 scale) ([2]; 125 g ai/ha) | Corn plant response rating (0-100) ([3]; 31 g ai/ha) | Corn plant response rating (0 to 100 scale) ([3]; 125 g ai/ha) | Foxtail, Green plant response rating (0-100) ([4]; 31 g ai/ha) | Foxtail, Green plant response rating (0 to 100 scale) ([4]; 125 g ai/ha) | Kochia plant response rating (0-100) ([5]; 31 g ai/ha) | Kochia plant response rating (0 to 100 scale) ([5]; 125 g ai/ha) | Oat, Wild plant response rating (0-100) ([6]; 31 g ai/ha) | Oat, Wild plant response rating (0 to 100 scale) ([6]; 125 g ai/ha) | Amaranth, Palmer plant response rating (0-100) ([7]; 31 g ai/ha) | Amaranth, Palmer plant response rating (0 to 100 scale) ([7]; 125 g ai/ha) | Ragweed plant response rating (0-100) ([8]; 31 g ai/ha) | Ryegrass, Italian plant response rating (0-100) ([9]; 31 g ai/ha) | Ryegrass, Italian plant response rating (0 to 100 scale) ([9]; 125 g ai/ha) | Soybean plant response rating (0-100) ([10]; 31 g ai/ha) | Soybean plant response rating (0 to 100 scale) ([10]; 125 g ai/ha) | Wheat plant response rating (0-100) ([11]; 31 g ai/ha) | Wheat plant response rating (0 to 100 scale) ([11]; 125 g ai/ha) | Barnyardgrass plant response rating (0-100) [12, 29] | Barnyardgrass plant response rating (0 to 100 scale) [12, 30] | Blackgrass plant response rating (0-100) [13, 29] | Blackgrass plant response rating (0 to 100 scale) [13, 30] | Corn plant response rating (0-100) [14, 29] | Galium plant response rating (0-100) [15, 29] | Galium plant response rating (0 to 100 scale) [15, 30] | Foxtail, Green plant response rating (0-100) [16, 29] | Foxtail, Green plant response rating (0 to 100 scale) [16, 30] | Horseweed plant response rating (0-100) [17, 29] | Horseweed plant response rating (0 to 100 scale) [17, 30] | Kochia plant response rating (0-100) [18, 29] | Kochia plant response rating (0 to 100 scale) [18, 30] | Oat, Wild plant response rating (0-100) [19, 29] | Oat, Wild plant response rating (0 to 100 scale) [19, 30] | Amaranth, Palmer plant response rating (0-100) [20, 29] | Amaranth, Palmer / Pigweed, Palmer plant response rating (0 to 100 scale) [20, 30] | Ragweed plant response rating (0-100) [21, 29] | Ragweed plant response rating (0 to 100 scale) [21, 30] | Ryegrass, Italian plant response rating (0-100) [22, 29] | Ryegrass, Italian plant response rating (0 to 100 scale) [22, 30] | Soybean plant response rating (0-100) [23, 29] | Soybean plant response rating (0 to 100 scale) [23, 30] | Wheat plant response rating (0-100) [24, 29] | Wheat plant response rating (0 to 100 scale) [24, 30] | Plant response rating, Barnyardgrass (0 to 100 scale, 0 is no effect and 100 is complete control) [25] | Plant response rating, Ducksalad (0 to 100 scale, 0 is no effect and 100 is complete control) [26] | Plant response rating, Rice (0 to 100 scale, 0 is no effect and 100 is complete control) [27] | Plant response rating, Sedge, Umbrella (0 to 100 scale, 0 is no effect and 100 is complete control) [28]
30: Ragweed plant response rating (0 to 100 scale) ([8]; 125 g ai/ha)

Source: patent publication US20260285850A1, “SUBSTITUTED OXAZOLIDINONES AND IMIDAZOLINONES AS HERBICIDES” (FMC CORPORATION, priority 2023, published 2026)
